Laboratory results reported in PubChem BioAssay AID192 (DTP/NCI, 2004).
Inconclusive results and toxic doses are left out. Rule for the calls: active = survival T/C of 150% or more; inactive = T/C below 125% in these data.

Test system: BDF1 mice, B16 melanoma ip, median survival T/C
Experiment: NCI In Vivo Anticancer Drug Screen. Data for tumor model B16 Melanoma (intraperitoneal) in B6D2F1 (BDF1) mice
Settings: endpoint: median survival time, higher = longer survival
Experimental: The antitumor activity of compounds was measured in mice bearing transplantable tumors. Survival or tumor size were measured and the results are expressed as the measurement made in the treated group (T) divided by the measurement made in the vehicle treated control group (C). The tumor model used in this assay is B16 Melanoma (intraperitoneal) in B6D2F1 (BDF1) mice

[1] = dose: 100.0 mg/kg/injection, schedule: Q01DX009 (ip), vehicle: saline with Tween-80
[2] = dose: 200.0 mg/kg/injection, schedule: Q01DX009 (ip), vehicle: saline with Tween-80
[3] = dose: 12.5 mg/kg/injection, schedule: Q01DX009 (ip), vehicle: saline
[4] = dose: 25.0 mg/kg/injection, schedule: Q01DX009 (ip), vehicle: saline
[5] = dose: 50.0 mg/kg/injection, schedule: Q01DX009 (ip), vehicle: saline
[6] = dose: 50.0 mg/kg/injection, schedule: Q01DX009 (ip), vehicle: Klucel (hydroxypropylcellulose) (HPC)
[7] = dose: 100.0 mg/kg/injection, schedule: Q01DX009 (ip), vehicle: Klucel (hydroxypropylcellulose) (HPC)
[8] = dose: 25.0 mg/kg/injection, schedule: Q01DX009 (ip), vehicle: Klucel (hydroxypropylcellulose) (HPC)
[9] = dose: 50.0 mg/kg/injection, schedule: Q01DX009 (ip), vehicle: saline with Tween-80

Measured: T/C

CCOC(=O)CCCc1c[nH]c2ccccc12
inactive: [1] 107 % of control | dose: 100.0 mg/kg/injection, schedule: Q04DX003 (ip), vehicle: saline with Tween-80 109 % of control | [2] 115 % of control | dose: 200.0 mg/kg/injection, schedule: Q04DX003 (ip), vehicle: saline with Tween-80 93 % of control | dose: 400.0 mg/kg/injection, schedule: Q01DX009 (ip), vehicle: saline with Tween-80 107 % of control | dose: 400.0 mg/kg/injection, schedule: Q04DX003 (ip), vehicle: saline with Tween-80 95 % of control

CCC(=O)c1ccc2c(c1)N(C(C)CN(C)C)c1ccccc1S2 (centres undefined)
inactive: [3] 120 % of control | [4] 110 % of control | [5] 105 % of control

CCOc1ccc(N2CSC(=S)N(c3ccc(OCC)cc3)C2)cc1
inactive: [6] 99 % of control | [7] 94 % of control | dose: 200.0 mg/kg/injection, schedule: Q01DX009 (ip), vehicle: Klucel (hydroxypropylcellulose) (HPC) 88 % of control

CCN(CC)CCSC(CO)c1ccccc1 (centres undefined)
inactive: [8] 103 % of control | [6] 96 % of control | [7] 93 % of control

O=C(Nc1ccc(F)cc1)C(c1ccccc1)c1ccccc1
inactive: dose: 12.5 mg/kg/injection, schedule: Q01DX009 (ip), vehicle: saline with Tween-80 98 % of control | dose: 25.0 mg/kg/injection, schedule: Q01DX009 (ip), vehicle: saline with Tween-80 92 % of control | [9] 89 % of control

Oc1ccc(I)c2cccnc12
inactive: [9] 97 % of control | [1] 100 % of control | [2] 97 % of control

C=C(Cl)C(=NC(C)(C)C)Nc1ccccc1C
inactive: dose: 3.12 mg/kg/injection, schedule: Q01DX009 (ip), vehicle: Klucel (hydroxypropylcellulose) (HPC) 99 % of control | dose: 6.25 mg/kg/injection, schedule: Q01DX009 (ip), vehicle: Klucel (hydroxypropylcellulose) (HPC) 86 % of control | dose: 12.5 mg/kg/injection, schedule: Q01DX009 (ip), vehicle: Klucel (hydroxypropylcellulose) (HPC) 92 % of control | [8] 102 % of control

CC(C)=CC(=O)OCC[N+](C)(C)C
inactive: dose: 1.56 mg/kg/injection, schedule: Q01DX009 (ip), vehicle: saline 114 % of control | dose: 3.12 mg/kg/injection, schedule: Q01DX009 (ip), vehicle: saline 112 % of control | dose: 6.25 mg/kg/injection, schedule: Q01DX009 (ip), vehicle: saline 104 % of control | [3] 102 % of control | [4] 101 % of control

C[N+](C)(C)c1ncnc2nc[nH]c12
inactive: [3] 92 % of control | [4] 89 % of control | [5] 93 % of control | dose: 100.0 mg/kg/injection, schedule: Q01DX009 (ip), vehicle: saline 103 % of control | dose: 200.0 mg/kg/injection, schedule: Q01DX009 (ip), vehicle: saline 87 % of control

CC(=O)OCC12CCC(C)=CC1OC1C(OS(C)(=O)=O)C(=O)C2(C)C12CO2 (centres undefined)
inactive: dose: 0.5 mg/kg/injection, schedule: Q01DX009 (ip), vehicle: saline 101 % of control | dose: 1.0 mg/kg/injection, schedule: Q01DX009 (ip), vehicle: saline 95 % of control | dose: 2.0 mg/kg/injection, schedule: Q01DX009 (ip), vehicle: saline 104 % of control | dose: 4.0 mg/kg/injection, schedule: Q01DX009 (ip), vehicle: saline 88 % of control

CC1=NN(c2ccccc2)C(=O)C1N=Nc1ccccc1S(=O)(=O)O (centres undefined)
inactive: [9] 90 % of control

CCCCC/C(C)=N\Nc1ccccn1
inactive: dose: 12.5 mg/kg/injection, schedule: Q01DX009 (ip), vehicle: saline sonified 106 % of control | dose: 25.0 mg/kg/injection, schedule: Q01DX009 (ip), vehicle: saline sonified 100 % of control | dose: 50.0 mg/kg/injection, schedule: Q01DX009 (ip), vehicle: saline sonified 102 % of control | dose: 100.0 mg/kg/injection, schedule: Q01DX009 (ip), vehicle: saline sonified 100 % of control
